Data reported in patent publication US20220390426A1, “AIE PROBE AND APPLICATION THEREOF” (The Hong Kong University of Science and Technology, priority 2020, published 2022).

Biological target: albumin (HSA) (Homo sapiens, UniProt P02768)
Assay: Albumin detection by ASQ fluorescence in PBS buffer
Format: binding
Details: [ASQ]=100 μM, λex=430 nm
Procedure: FIG. 4A The fluorescence response of ASQ to HSA. FIG. 4B Linear plot of l/l0 at 542 nm versus HSA concentrations. l0 equals to the intensity of [HSA]=0 mg/L. FIG. 4C Selectivity study of ASQ towards albumin. l0 equals the intensity of the blank sample. [Biomolecules]=1 mg/mL. [ASQ]=100 μM, λex=430 nm.
Albumin protein is the substance carrier in blood with multiple polar or nonpolar binding sites. […] There is a very good linear relationship between the fluorescence intensity and albumin concentration (FIG. 4B).

Sequence of albumin (HSA) (P02768 25-609): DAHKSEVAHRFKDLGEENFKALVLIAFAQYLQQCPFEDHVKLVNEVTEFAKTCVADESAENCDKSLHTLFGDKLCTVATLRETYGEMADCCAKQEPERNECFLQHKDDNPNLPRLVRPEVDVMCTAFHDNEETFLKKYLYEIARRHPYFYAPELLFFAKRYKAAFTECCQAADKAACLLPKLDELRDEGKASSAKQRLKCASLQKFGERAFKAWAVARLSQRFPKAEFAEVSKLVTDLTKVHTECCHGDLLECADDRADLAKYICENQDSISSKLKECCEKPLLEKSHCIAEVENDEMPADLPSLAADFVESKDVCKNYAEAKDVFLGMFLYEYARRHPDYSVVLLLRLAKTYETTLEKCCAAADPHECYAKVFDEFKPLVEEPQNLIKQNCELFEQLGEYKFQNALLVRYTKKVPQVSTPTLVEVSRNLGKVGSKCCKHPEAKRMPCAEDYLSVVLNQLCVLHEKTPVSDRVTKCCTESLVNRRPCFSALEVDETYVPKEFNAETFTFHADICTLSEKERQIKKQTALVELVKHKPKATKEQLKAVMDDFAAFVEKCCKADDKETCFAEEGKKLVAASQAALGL

fluorescence emission response on addition of albumin (ASQ's PBS buffer solution): greatly enhanced
selectivity towards albumin versus other common biomolecules such as hemoglobin (emission turn-on) ([Biomolecules]=1 mg/mL): good selectivity towards albumin
SMILES: CN(C)c1ccc(C=Cc2nc3ccccc3[nH]c2=O)cc1 [ASQ]
